Source: patent publication US8003604B2, “Hepatitis C virus inhibitors” (priority 2006, dated 2011)

How the values were obtained:
[1] = target: T1, HCV NS3/4A protease complex (Hepatitis C virus genotype 1a, UniProt P27958, C1454S/C1711G); test: FRET peptide assay to monitor HCV NS3/4A proteolytic activity; assay type: biochemical
T1 construct: DNA encoding the recombinant HCV NS3/4A protease complex (amino acids 1027 to 1711) for these strains were manipulated; inferred from pET21b vector and Ni-NTA purification; made in house; host or cells: Escherichia coli BL21 (DE3), pET21b vector
T1 sequence (P27958 1027-1711 C1454S/C1711G, one chain of several): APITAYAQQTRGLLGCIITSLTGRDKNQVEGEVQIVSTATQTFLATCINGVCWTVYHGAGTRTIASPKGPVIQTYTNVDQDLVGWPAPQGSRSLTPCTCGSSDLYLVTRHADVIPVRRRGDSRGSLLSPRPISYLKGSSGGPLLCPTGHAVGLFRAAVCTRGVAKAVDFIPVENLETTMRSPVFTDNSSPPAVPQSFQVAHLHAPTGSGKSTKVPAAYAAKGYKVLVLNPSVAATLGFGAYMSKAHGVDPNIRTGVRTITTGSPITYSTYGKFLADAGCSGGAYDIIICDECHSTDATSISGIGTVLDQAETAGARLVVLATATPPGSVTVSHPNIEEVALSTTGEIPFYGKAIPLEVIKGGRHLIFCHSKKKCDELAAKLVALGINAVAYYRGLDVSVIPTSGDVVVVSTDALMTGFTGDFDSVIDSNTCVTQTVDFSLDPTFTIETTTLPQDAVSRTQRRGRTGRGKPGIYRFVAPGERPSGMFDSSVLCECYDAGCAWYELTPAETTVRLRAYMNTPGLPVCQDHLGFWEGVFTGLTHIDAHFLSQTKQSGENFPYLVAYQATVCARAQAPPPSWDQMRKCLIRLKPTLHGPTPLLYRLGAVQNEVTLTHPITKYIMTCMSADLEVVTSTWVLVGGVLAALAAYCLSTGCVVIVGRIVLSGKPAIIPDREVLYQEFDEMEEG
Excerpt: HCV NS3 protease complexes, derived from the BMS strain, H77 strain or J4L6S strain, were generated, as described below. These purified recombinant proteins were generated for use in a homogeneous assay (see below) to provide an indication of how effective compounds of the present disclosure would be in inhibiting HCV NS3 proteolytic activity.
Serum from an HCV-infected patient was obtained from Dr. T. Wright, San Francisco Hospital. An engineered full-length cDNA (compliment deoxyribonucleic acid) template of the HCV genome (BMS strain) was constructed from DNA fragments obtained by reverse transcription-PCR (RT-PCR) of serum RNA (ribonucleic acid) and using primers selected on the basis of homology between other genotype 1a strains. From the determination of the entire genome sequence, a genotype 1a was assigned to the HCV isolate according to the classification of Simmonds et al. (See P Simmonds, K A Rose, S Graham, S W Chan, F McOmish, B C Dow, E A Follett, P L Yap and H Marsden, J. Clin. Microbiol., 31(6), 1493-1503 (1993)). […]

[2] = test system: HCV replicon in HUH-7 cells; test: HCV replicon FRET assay (confirmed in replicon luciferase reporter assay); assay type: cell-based; conditions: Hepatitis C virus, 96 h; HUH-7 cells constitutively expressing HCV 1b replicon, 4 days incubation
Excerpt: An HCV replicon whole cell system was established as described by Lohmann V, Korner F, Koch J, Herian U, Theilmann L, Bartenschlager R., Science 285(5424):110-3 (1999). This system enabled us to evaluate the effects of our HCV Protease compounds on HCV RNA replication. Briefly, using the HCV strain 1b sequence described in the Lohmann paper (Accession number: AJ238799), an HCV cDNA was synthesized by Operon Technologies, Inc. (Alameda, Calif.), and the full-length replicon was then assembled in plasmid pGem9zf(+) (Promega, Madison, Wis.) using standard molecular biology techniques. […]
The HCV replicon FRET assay was developed to monitor the inhibitory effects of compounds described in the disclosure on HCV viral replication. […] After 4 days, cells were first assessed for cytotoxicity using alamar Blue (Trek Diagnotstic Systems) for a CC50 reading. The toxicity of compound (CC50) was determined by adding 1/10th volume of alamar Blue to the media incubating the cells. After 4 h, the fluorescence signal from each well was read, with an excitation wavelength at 530 nm and an emission wavelength of 580 nm, using the Cytofluor Series 4000 (Perspective Biosystems). […]

CC(C)(C)OC(=O)N[C@H]1CCCCC/C=C\C2C[C@@]2(C(=O)NS(=O)(=O)C2CC2)NC(=O)[C@@H]2C[C@@H](c3ccccc3)CN2C1=O (stereo partly shown) [Compound 1]
IC50 [1]: 18 nM | EC50 [2]: 639 nM

CC(C)(C)OC(=O)N[C@H]1CCCCC/C=C\[C@@H]2C[C@@]2(C(=O)NS(=O)(=O)C2CC2)NC[C@@H]2C[C@@](O)(c3ccccc3)CN2C1=O [Compound 2]
IC50 [1]: 9 nM | EC50 [2]: 389 nM
